Reference: paper PMC5816697 (European journal of medicinal chemistry, 2018)
Entries after “also recorded” stand apart in the source; their conditions may differ.

Assays:
panel of 244 kinases = assay: Kinome profiling against a panel of 244 kinases; format: biochemical; details: 1 μM compound
[1] = system: phosphorylation of MEK and ERK (BRAF^V600E downstream signaling); assay: Western blot of MEK/ERK phosphorylation in A375 cells; format: cell-based
[2] = system: phosphorylation of Abl at Y412; assay: Immunoblot of Abl Y412 phosphorylation in BCR-ABL-expressing Ba/F3 cells; format: cell-based
Ba/F3 BCR-ABL = assay: MTT growth inhibition assay, Ba/F3 cells expressing Bcr-Abl; format: cell-based; details: ratio of IC50 values

CC(C)n1nc(C#Cc2cccc(NC(=O)c3cccc(C(F)(F)F)c3)c2)c2c(N)ncnc21 [Compound 1]
number of kinases inhibited by over 90% (panel of 244 kinases): 44

CCn1nc(C#Cc2cccc3cc(-c4cccc(C(F)(F)F)c4)ncc23)c2c(N)ncnc21 [Compound 2d, 1-Ethyl-3-((3-(3-(trifluoromethyl)phenyl)isoquinolin-8-yl)ethynyl)-1H-pyrazolo[3,4-d]p yrimidin-4-amine]
effect on phosphorylation of MEK ([1]; concentrations up to 100 μM): failed to suppress the phosphorylation of MEK; also recorded: little effects

CC(C)n1nc(C#Cc2cccc3cc(-c4ccc(CN5CCN(C)CC5)cc4)ncc23)c2c(N)ncnc21 [Compound 2f, 1-Isopropyl-3-((3-(4-((4-methylpiperazin-1-yl)methyl)phenyl)isoquinolin-8-yl)ethynyl)-1H-pyrazolo[3,4-d]pyrimidin-4-amine]
fold lower potency than compound 1, Abl Y412 phosphorylation [2]: approximately 30 fold
fold less potent than parent compound 1 against Bcr-Abl Ba/F3 cells (Ba/F3 BCR-ABL): 44 fold

CCCS(=O)(=O)Nc1ccc(F)c(C(=O)c2c[nH]c3ncc(-c4ccc(Cl)cc4)cc23)c1F [Vem, vemurafenib, reference compound]
effect on phosphorylation of MEK and ERK ([1]; concentrations above 1 μM): abolished the phosphorylation of MEK and ERK
effect on phosphorylation of MEK ([1]; various concentrations, Figure 4): potently blocked phosphorylation of MEK
